# Reference: US20050215529A1, “Method of treating oxidative stress-associated conditions with isopentenyl diphosphate” (THE REGENTS OF THE UNIVERSITY OF MICHIGAN, priority 2004, published 2005)
# Where “and” joins values, the source holds several entries; their conditions need not be identical. Identical values can stand only once. Like-named read-outs stand apart in the source and are kept apart here.
# Columns and labels:
# [1] = system: human fibroblastoid M1 cells; test: Comet assay, protection against H2O2-induced DNA damage; assay type: cell-based
# Experimental: (§1) A single-cell gel electrophoresis (SCGE) assay, known as the “Comer” assay was performed to detect/quantify DNA damage by identifying DNA-strand breakage in individual cells, for example. The assay was performed using a kit commercially-available from Trevigen, Inc., of Gaithersburg, Md., as “CometAssay™.” See P. J. McCarthy et al. (1997) Mutagenesis 12:209-214; A. R. Collins et al. (2001) Biochem. Soc. Trans. 29:337-341. Sub-confluent cells were washed with phosphate buffered saline (PBS) and detached from the tissue culture flasks using a 0.05% trypsin solution. After centrifugation, the cells were washed and re-suspended in serum-free DMEM medium. The cells were divided into Eppendorf tubes (1.5 ml), and centrifuged at 2500 rotations per minutes (rpm) for ten minutes. Signal-modulating agents were added and samples were kept in a 37° C. incubator for thirty minutes. In some experiments, the cells were pre-incubated with various inhibitors for the indicated times at 37° C. At the end of the incubation period with signal-modulating chemicals, the cells were washed with PBS and treated with 100 μM H2O2 in 0.5 ml PBS on ice for twenty minutes. Following the hydrogen peroxide treatment, the cells were immediately microfuged for fifteen seconds. The cells were twice washed with cold PBS, and re-suspended at 1.0×10^5 cells/ml in ice-cold PBS. Five microliter cell suspension were each mixed with 50 μl molten LMAgarose and, thereafter, the mixtures were placed onto slides (CometSlide™).
# (§2) The slides were placed at 4° C. in the dark for ten minutes and subsequently immersed in pre-chilled Lysis Solution at 4° C. for an additional thirty minutes. Following this incubation, excess buffer was tapped off from the slides. Subsequently, the slides were placed in a 50 ml Coplin jar containing alkali buffer for thirty minutes at room temperature in the dark and then immersed in 50 ml of TBE buffer for five minutes. The slides were then placed flat onto a gel tray submerged in TBE buffer in a horizontal electrophoresis apparatus, and aligned equidistant from the electrodes. Electrophoresis was performed at one volt per centimeter (cm) for ten minutes. Following this electrophoresis, the samples were fixed in 100% methanol for five minutes and 100% ethanol for five minutes. After drying, 50 μl of diluted SYBR Green Concentrate was added onto each circle of agarose. Comet tail fluorescence intensity was quantified with a Diagnostic Instruments digitized camera, mounted on a Nikon Eclipse E400 microscope, using Scion Image software. Quantification of comet fluorescence was performed as described in P. J. McCarthy et al. (1997) Mutagenesis 12:209-214. Each data point was derived from 30 to 100 individual cells. The data are shown either in arbitrary fluorescent units, or as % DNA damage protection (i.e., the percent decrement in tail fluorescence intensity with test reagent, relative to the intensity recorded in cells treated with hydrogen peroxide only)±S.E.M.
# A dose response analysis of DNA damage protection also was performed to determine the efficacy of various doses of isopentenyl diphosphate versus 2-chloroadenosine. The analysis was carried out by pre-incubating human fibroblastoid M1 cells for thirty minutes with different concentrations of isopentenyl diphosphate or 2-chloroadenosine prior to incubating the cells with 100 μM H2O2 to induce oxidative stress. Following induction of oxidative stress, DNA damage was quantified using the Comet assay, as described above.
# [2] = system: human fibroblastoid M1 cells; test: Comet assay, inhibition of 2CA- or IPP-mediated DNA damage protection by antagonists/inhibitors; assay type: cell-based; design: key to Mechanism of Signal Transduction: PKA / Mechanism of Signal Transduction: Mevalonate Pathway / Mechanism of Signal Transduction: GGT / Mechanism of Signal Transduction: FT / Mechanism of Signal Transduction: Proteasome: “+” indicates a dependence; “−” indicates independence
# Experimental: as §1, §2
# Specifically, […], human fibroblastoid M1 cells were incubated for thirty minutes in either H-89 or 8-bromoguanosine-3′,5′-cyclic monophosphate (8-Br-cGMP) (B), or for fifteen minutes in SNAP, at different concentrations. […] Following induction of oxidative stress, DNA damage was quantified using the Comet assay, as described above. Shown in FIGS. 14-16 are graphs illustrating the DNA damage protection as function of the molar concentration of H-89 (FIG. 14), 8-Br-cGMP (FIG. 15), and SNAP (FIG. 16).
# In yet another test, human fibroblastoid M1 cells were pre-incubated for fifteen minutes with different concentrations of the A2bAR antagonist, enprofylline (Enpro).
# [3] = system: human fibroblastoid M1 cells; test: Measurement of ROS (DCFH-DA fluorescence); assay type: cell-based; details: for H2O2-induced ROS formation: 10 μM agent, 100 μM H2O2, FIG. 4
# Experimental: The presence of reactive oxidative species was measured using commercially-available equipment in accordance with the manufacturer's instructions. Specifically, sub-confluent cells were detached from flasks using 0.05% trypsin and 5×10^3 human fibroblastoid M1 cells per well were seeded into 96-well plates (Falcon 35-3072). After an overnight culture, the cells were twice washed with DMEM-phenol red-free medium. The cells were subsequently treated with various concentrations of signal-modulating agents in the presence of 10 micromolar (μM) DCFH-DA in 100 microliters (μl) DMEM-phenol red-free medium at 37° C. for 30 minutes. This medium was replaced by a 100 μl DMEM-phenol red-free medium containing DCFH-DA and either 50 mU/ml GO, or 100 μM H2O2, and the cultures were subsequently incubated at 37° C. for 30 minutes. After thirty minutes incubation, the plates were read by CytoFluor™ 2300 (Millipore) at an excitation wavelength (Ex) of 480 nm and emission wavelength (Em) of 520 nm, or by Fusion-Alpha HT system (PerkinElmer Life Sciences, Boston, Mass.) at Ex 485 nm and Em 530 nm.
# ROS levels were quantified using the Fusion-Alpha HT system, as described above.
# To verify the efficiency of that pathway, DCFH-DA-loaded human fibroblastoid M1 cells were incubated with 10 μM 2-chloroadenosine for thirty minutes followed by incubation with 100 μM H2O2 for twenty minutes to induce oxidative stress. […] ROS levels were quantified using the CytoFluor™ 2300 system, as described above.
# [4] = system: A2aAR-transfected HEK293 cells; test: Comet assay in A2aAR-transfected HEK293 cells; assay type: cell-based; details: Homo sapiens, 100 μM H2O2, read-out: IC50, DNA damage protection
# Experimental: (§3) A single-cell gel electrophoresis (SCGE) assay, known as the “Comer” assay was performed to detect/quantify DNA damage by identifying DNA-strand breakage in individual cells, for example. The assay was performed using a kit commercially-available from Trevigen, Inc., of Gaithersburg, Md., as “CometAssay™.” See P. J. McCarthy et al. (1997) Mutagenesis 12:209-214; A. R. Collins et al. (2001) Biochem. Soc. Trans. 29:337-341. Sub-confluent cells were washed with phosphate buffered saline (PBS) and detached from the tissue culture flasks using a 0.05% trypsin solution. After centrifugation, the cells were washed and re-suspended in serum-free DMEM medium. […]
# (§4) The slides were placed at 4° C. in the dark for ten minutes and subsequently immersed in pre-chilled Lysis Solution at 4° C. for an additional thirty minutes. […] Comet tail fluorescence intensity was quantified with a Diagnostic Instruments digitized camera, mounted on a Nikon Eclipse E400 microscope, using Scion Image software. Quantification of comet fluorescence was performed as described in P. J. McCarthy et al. (1997) Mutagenesis 12:209-214. […] The data are shown either in arbitrary fluorescent units, or as % DNA damage protection (i.e., the percent decrement in tail fluorescence intensity with test reagent, relative to the intensity recorded in cells treated with hydrogen peroxide only)±S.E.M. […]
# [5] = system: A2bAR-transfected HEK293 cells; test: Comet assay in A2bAR-transfected HEK293 cells; assay type: cell-based; details: Homo sapiens, 100 μM H2O2, read-out: IC50, DNA damage protection
# Experimental: as §3, §4
# [6] = system: A1AR-transfected HEK293 cells; test: Comet assay in A1AR-transfected HEK293 cells; assay type: cell-based, human
# Experimental: A single-cell gel electrophoresis (SCGE) assay, known as the “Comer” assay was performed to detect/quantify DNA damage by identifying DNA-strand breakage in individual cells, for example. The assay was performed using a kit commercially-available from Trevigen, Inc., of Gaithersburg, Md., as “CometAssay™.” See P. J. McCarthy et al. (1997) Mutagenesis 12:209-214; A. R. Collins et al. (2001) Biochem. Soc. Trans. 29:337-341. Sub-confluent cells were washed with phosphate buffered saline (PBS) and detached from the tissue culture flasks using a 0.05% trypsin solution. After centrifugation, the cells were washed and re-suspended in serum-free DMEM medium. The cells were divided into Eppendorf tubes (1.5 ml), and centrifuged at 2500 rotations per minutes (rpm) for ten minutes. Signal-modulating agents were added and samples were kept in a 37° C. incubator for thirty minutes. In some experiments, the cells were pre-incubated with various inhibitors for the indicated times at 37° C. At the end of the incubation period with signal-modulating chemicals, the cells were washed with PBS and treated with 100 μM H2O2 in 0.5 ml PBS on ice for twenty minutes. Following the hydrogen peroxide treatment, the cells were immediately microfuged for fifteen seconds. The cells were twice washed with cold PBS, and re-suspended at 1.0×10^5 cells/ml in ice-cold PBS. […]
# as §4
# [7] = system: human fibroblastoid M1 cells; test: Measurement of cAMP levels (EIA kit); assay type: cell-based; details: 10 μM agent, in presence of RO20-1724; FIG. 18
# Experimental: Cyclic AMP levels were measured using a kit that is commercially-available from Amersham Biosciences of Piscataway, N.J., under the name “EIA Kit” (Cat. No. RPN225). Specifically, human fibroblastoid M1 cells were cultured overnight in 6-well tissue culture plates, 2×10^5 cells per well. Before stimulation, the cells were washed once with serum-free DMEM medium and incubated in 37° C. with 0.2 millimolar (mM) RO20-1724, a phosphodiesterase inhibitor, for fifteen minutes. Following this incubation period, 10 μM of either 2-chloroadenosine or isopentenyl diphosphate were added to each cell culture, and the cells cultures were thereafter maintained at 37° C. for the indicated time in the presence of phosphodiesterase inhibitor (RO20-1724). Determination of cAMP levels was performed with the EIA Kit in accordance with its manufacturer's instructions.
# In another test, human fibroblastoid M1 cells also were stimulated with 10 μM 2-chloroadenosine or isopentenyl diphosphate, and cAMP levels were quantified.
# [8] = system: murine L-cell fibroblasts, human cells of lymphoid, fibroblastoid, myeloid, or neuronal lineages; test: Antioxidative signaling in other cell lineages and species (data not shown); assay type: cell-based
# [9] = system: p53-deficient cell lines HL60 and K562 and the nucleotide excision repair-deficient line XPA; test: DNA damage protection in p53-deficient and nucleotide excision repair-deficient lines (data not shown); assay type: cell-based
# [10] = dependence of DNA damage protection signaling
smiles,measurement,setting,value
"Nc1nc(Cl)nc2c1ncn2[C@@H]1O[C@H](CO)[C@@H](O)[C@H]1O [2CA, 2-chloroadenosine]",H2O2-mediated DNA damage,"[1]; 10 μM agent, 100 μM H2O2 for twenty minutes, FIG. 5",prevented H2O2-mediated DNA damage
same,IC50,"[1]; Homo sapiens, AR agonists and isoprenyls, M1 cells, 100 μM H2O2, Comet assay, read-out: IC50 (pM), DNA damage protection",2040 pM
same,IC50,"[1]; Homo sapiens, M1 cells pre-incubated thirty minutes, then 100 μM H2O2, FIGS. 6 and 7, read-out: IC50, DNA damage protection",2040 pM
same,triggering of DNA damage protection,"[1]; M1 cells, various concentrations, 100 μM H2O2",triggered DNA damage protection
same,Mechanism of Signal Transduction: FT,[2]; [10],−
same,Mechanism of Signal Transduction: GGT,[2]; [10],−
same,Mechanism of Signal Transduction: Mevalonate Pathway,[2]; [10],−
same,Mechanism of Signal Transduction: PKA,[2]; [10],+
same,Mechanism of Signal Transduction: Proteasome,[2]; [10],−
same,H2O2-induced ROS formation,[3],equivalent inhibition of H2O2-induced ROS formation
same,IC50,[4],140 nM
same,IC50,[5],120 nM
same,DNA damage protection response,"[6]; A1AR-transfected HEK293 cells, 100 μM H2O2",failed to transduce the antioxidative signal
same,c[AMP]i over time,[7],triggered an increase
same,response to antioxidative signaling,[8]; data not shown,all could respond
same,DNA damage protection induction,"[9]; HL60, K562, XPA, data not shown",intact DNA damage protection induction
"C=C(C)CCOP(=O)(O)OP(=O)(O)O [IPP, isopentenyl diphosphate]",H2O2-mediated DNA damage,[1],prevented H2O2-mediated DNA damage
same,potency relative to 2-chloroadenosine,[1],about 100 times
same,triggering of DNA damage protection,[1],triggered DNA damage-protection signaling
same,IC50,"[1]; read-out: IC50 (pM), DNA damage protection",17 pM
same,IC50,"[1]; read-out: IC50, DNA damage protection",17 pM and ~17 pM
same,Mechanism of Signal Transduction: FT,[2],−
same,Mechanism of Signal Transduction: GGT,[2],+
same,Mechanism of Signal Transduction: Mevalonate Pathway,[2],+
same,Mechanism of Signal Transduction: PKA,[2],−
same,Mechanism of Signal Transduction: Proteasome,[2],+
same,H2O2-induced ROS formation,[3],equivalent inhibition of H2O2-induced ROS formation
same,ROS generation,"[3]; different concentrations, 50 mU/ml GO for thirty minutes, FIG. 3",efficient at blocking ROS generation
same,DNA damage protection response,[6],responded readily
same,c[AMP]i over time,[7],did not trigger any meaningful increase
same,response to antioxidative signaling,[8],all could respond
same,DNA damage protection induction,[9],intact DNA damage protection induction
